Patent US11672753B2, “Composition for sebum control and pore minimizing” (AMOREPACIFIC CORPORATION, priority 2017, dated 2023)

Columns and labels:
[1] = test system: HaCaT keratinocytes and human sebaceous gland cells; assay: Evaluation of sebum production inhibitory activity (Oil Red O staining of triglycerides); format: cell-based; conditions: retinol 0.3 ppm (comparison); one day
Text: In order to efficiently evaluate the sebum production inhibitory activity of the plant extracts of the present disclosure, sebaceous gland cells and keratinocytes were used together, and an environment in vitro model similar to that of human sebaceous glands of the hair was used. HaCaT (ATCC, Va., USA), keratinocytes (Cellprogen, Calif., USA) cells and human sebaceous gland cells were inoculated into a 24-well culture plate at 3.75×10^4 cells and 6.0×10^4 cells, respectively. After inoculation, it was allowed to stand for one day so that the cells adhered to the bottom of the culture plate. At this time, 10% of fetal bovine serum (JRH Bioscience, Tokyo, Japan), […] of streptomycin (the above two reagents, GIBCO, Milan, Italy) were added to DMEM medium (Invitrogen, Carlsbad, Calif.) and used as a medium. After one day, the cells were treated with 50 μM of linoleic acid, 50 μM of arachidonic acid, or 10 nM of dihydrotestosterone, as a stimulating source for causing seborrheic skin inflammation. […] After one day, the amount of triglycerides produced in the cells was measured using Oil Red O staining. […] Then, the […], and the absorbance was measured at 520 nm using a spectrophotometer for quantification. […]

[2] = test system: procollagen-I in human fibroblasts; assay: Evaluation of procollagen-I production activity (ELISA of culture solution); format: cell-based; conditions: TGF-β1 0.005 ppm (comparison); two days after treatment
Text: An enzyme-linked immunosorbent assay (ELISA) method was used to confirm the amount of procollagen-I produced by the plant extracts of the present disclosure (Youngren et al., 1999). Since procollagen-I is a substance secreted out of cells, the culture solution of the fibroblasts treated with the samples was collected and applied to the experiment as a measurement method for confirming the expression change using the cell culture solution.
Specifically, human fibroblasts (Cell biologics, IL, USA) were inoculated into a 24-well culture plate at 2.5×10^4 cells. After inoculation, it was allowed to stand for one day so that the cells adhered to the bottom of the culture plate. At this time, 2% of low serum growth supplement (LSGS; Thermo Fisher, Mass., USA), […] of streptomycin (the above two reagents, GIBCO, Milan, Italy) were added to 106 medium (Thermo Fisher, Mass., USA) and used as a medium. Each plant extract obtained in Reference Examples 1 to 7 in the experimental group was dissolved in DMSO to make a 1% solution, and then diluted in DMEM medium, and treated to a final concentration of 50 ppm. In addition, for comparison, TGF-β1, known to have the ability to produce procollagen-I, was treated at a concentration of 0.005 ppm instead of the plant extracts. Two days after the treatment with the samples, the production of procollagen-I was measured. […]

Row | Molecule | Inhibition rate of sebum production (%) [1] [%] | Production rate of Procollagen-I (%) [2] [%]
1 | CC1=C(/C=C/C(C)=C/C=C/C(C)=C/CO)C(C)(C)CCC1 [Retinol] | 42.1 | –
2 | TGF-β1: known to have the ability to produce procollagen-I; comparison | – | 52.1
